Test system: acetyl-α-tubulin (HDAC6 main target) in U251-MG cells
Experiment: Western blot of acetyl-α-tubulin and cleaved PARP in U251-MG
Type: cell-based, human
Conditions: 10 nM, 48 h
Experimental: Immunoblots were performed following standard procedures. […] Detection was performed by chemiluminiscence using NOVEX ECL Chemi Substrate (ThermoFisher).

## O=C(CCCCCCC(=O)Nc1ccccc1)NO [SAHA, Suberoylanilide hydroxamic acid]
  α-tubulin hyperacetylation: did not

From paper PMC7265429, “Characterization of a new small-molecule inhibitor of HDAC6 in glioblastoma” (Cell Death & Disease, 2020)
